According to patent publication EP4818174A1, “ERIBULIN DERIVATIVE AND ANTIBODY-DRUG CONJUGATE THEREOF, AND MEDICAL USE THEREOF” ([…] CO., LTD., priority 2024, dated 2025):
Where a name gives a salt, the structure may show the parent alone. Read-outs that look alike come from different tables or passages of the source.

Tests used:
Assay in all cases: Inhibitory activity on other cancer cell lines (similar method)
Type in all cases: cell-based
MDA-MB-453 = details: Homo sapiens
Protocol: (§1) On the day of the test, the cells were digested with 0.25% trypsin (Gibco, 25200-072), filtered with a sieve with a pore size of 40 µm, diluted with the corresponding medium until a cell density reached 1 × 10^4 cells/mL, and inoculated onto a 96-well white cell culture plate (Beyotime, FCP968), 100 µL of cells were added per well, the culture plate was put in a 37°C incubator (Thermo 311) containing 5% CO2, and the cells were further incubated for 24 hours. On Day 2, to-be-tested samples were prepared into a stock solution at a final concentration of […] with DMSO (Sigma, D1650), then diluted with the corresponding medium until a final concentration reached 200 nM, and then subjected to four-fold serial dilutions, to prepare solutions at a total of 9 concentrations. 100 µL of the diluted sample was added to a 96-well plate, the plate was put in a 37°C incubator containing 5% CO2, and the cells were further incubated for 144 hours. The cell culture plate was removed, 100 µL of cell viability assay agent (CellTiter-Glo® Luminescent Cell Viability Assay, Promega, G7571) was added to each well, and the reaction solution allowed to react in the dark for 5 minutes at room temperature. Luminescence values were read by a microplate reader (TECAN SPARK) and data were processed with Graphpad Prism 7 software.
(§2) Table 2: Inhibitory IC50 Values of Compounds PE-21EK and PE-AM4 in the Present Invention Against Other Cancer Cell Lines

MDAMB231 = details: Homo sapiens
Protocol: as §1, §2

HCC1937 = details: Homo sapiens
Protocol: as §1, §2

SW620 = details: Homo sapiens
Protocol: as §1, §2

A549 = details: Homo sapiens
Protocol: as §1, §2

Renal cancer = details: read-out: Inhibitory IC50 values
Protocol: as §1, §2

22Rv1 = details: Homo sapiens
Protocol: as §1, §2

NCI-H1650 = details: Homo sapiens
Protocol: as §1, §2

IGROV-1 = details: Homo sapiens
Protocol: as §1, §2

NSCLC = details: read-out: Inhibitory IC50 values
Protocol: as §1, §2

HS578T = details: Homo sapiens, Hs-578T, read-out: Inhibitory IC50 values
Protocol: as §1, §2

DU145 = details: Homo sapiens
Protocol: as §1, §2

Lncap cell = details: Homo sapiens, read-out: Inhibitory IC50 values
Protocol: as §1, §2

H1975 = details: Homo sapiens
Protocol: as §1, §2

MIA PaCa-2 = details: Homo sapiens
Protocol: as §1, §2

[1] = MDA-MB-453, cell source Breast cancer, unit inferred, read-out: Inhibitory IC50 values
[2] = MDA-MB-231, MDAMB231, cell source Breast cancer, unit inferred, read-out: Inhibitory IC50 values
[3] = HCC1937, cell source Breast cancer, unit inferred, read-out: Inhibitory IC50 values
[4] = SW-620, SW620, cell source Colon cancer, unit inferred, read-out: Inhibitory IC50 values
[5] = A549, cell source NSCLC, unit inferred, read-out: Inhibitory IC50 values
[6] = 22Rv1, cell source Prostate cancer, unit inferred, read-out: Inhibitory IC50 values
[7] = NCI-H1650, cell source NSCLC, unit inferred, read-out: Inhibitory IC50 values
[8] = IGROV-1, cell source Ovarian cancer, unit inferred, read-out: Inhibitory IC50 values
[9] = HS578T, cell source Breast cancer, unit inferred
[10] = DU-145, DU145, cell source Prostate cancer, unit inferred, read-out: Inhibitory IC50 values
[11] = Lncap cell, cell source Prostate cancer, unit inferred
[12] = NCI-H1975, H1975, cell source NSCLC, unit inferred, read-out: Inhibitory IC50 values
[13] = MIA PaCa-2, cell source Pancreatic cancer, unit inferred, read-out: Inhibitory IC50 values

Structure (SMILES) | IC50 (MDA-MB-453; [1]) [pM] | IC50 (MDAMB231; [2]) [pM] | IC50 (HCC1937; [3]) [pM] | IC50 (SW620; [4]) [pM] | IC50 (A549; [5]) [pM] | IC50 (Renal cancer) [pM] | IC50 (22Rv1; [6]) [pM] | IC50 (NCI-H1650; [7]) [pM] | IC50 (IGROV-1; [8]) [pM] | IC50 (NSCLC) [pM] | IC50 (HS578T; [9]) [pM] | IC50 (DU145; [10]) [pM] | IC50 (Lncap cell; [11]) [pM] | IC50 (H1975; [12]) [pM] | IC50 (MIA PaCa-2; [13]) [pM] | also measured
C=C1C[C@@H]2CC[C@@]34C[C@H]5O[C@H]6[C@@H](O3)[C@H]3O[C@H](CC[C@@H]3O[C@H]6[C@H]5O4)CC(=O)C[C@@H]3[C@@H](OC)[C@@H](CC(=O)CNC(=O)OCCCCCO)O[C@H]3C[C@H]3O[C@@H](CC[C@@H]1O2)C[C@@H](C)C3=C [PE-21EK] | 84.6 | 218 | 104 | 22.1 | 194 | 102 | 125 | 262 | 289 | 184 | 20.7 | 501 | 123 | 70.8 | 158 | –
C=C1C[C@@H]2CC[C@@]34C[C@H]5O[C@H]6[C@@H](O3)[C@H]3O[C@H](CC[C@@H]3O[C@H]6[C@H]5O4)CC(=O)C[C@@H]3[C@@H](OC)[C@@H](CC(=O)N4CC(CO)C4)O[C@H]3C[C@H]3O[C@@H](CC[C@@H]1O2)C[C@@H](C)C3=C [PE-AM4] | 151 | 1080 | 647 | 1300 | 4920 | 3470 | 741 | 1560 | 623 | 3130 | 276 | 686 | 457 | 728 | 1220 | –
C=C1C[C@@H]2CC[C@@]34C[C@H]5O[C@H]6[C@@H](O3)[C@H]3O[C@H](CC[C@@H]3O[C@H]6[C@H]5O4)CC(=O)C[C@@H]3[C@@H](OC)[C@@H](C[C@H](O)CN)O[C@H]3C[C@H]3O[C@@H](CC[C@@H]1O2)C[C@@H](C)C3=C [PE-E, eribulin mesylate, reference compound] | – | – | – | – | – | 755 | – | – | – | 649 | – | – | – | – | – | IC50 (MDA-MB-453; MDA-MB-453, read-out: Inhibitory IC50 values): 19300 pM; IC50 (MDAMB231; MDA-MB-231, read-out: Inhibitory IC50 values): 805 pM; IC50 (HCC1937; HCC1937, read-out: Inhibitory IC50 values): 2850 pM; IC50 (SW620; SW-620, read-out: Inhibitory IC50 values): 419 pM; IC50 (A549; A549, read-out: Inhibitory IC50 values): 4170 pM; IC50 (22Rv1; 22Rv1, read-out: Inhibitory IC50 values): 618 pM; IC50 (NCI-H1650; NCI-H1650, read-out: Inhibitory IC50 values): 2350 pM; IC50 (IGROV-1; IGROV-1, read-out: Inhibitory IC50 values): 439 pM; IC50 (HS578T): 188 pM; IC50 (DU145; DU-145, read-out: Inhibitory IC50 values): 1680 pM; IC50 (Lncap cell; LNCaP): 1300 pM; IC50 (H1975; NCI-H1975, read-out: Inhibitory IC50 values): 505 pM; IC50 (MIA PaCa-2; MIA PaCa-2, read-out: Inhibitory IC50 values): 668 pM
